From US20050260164A1, “Gene regulation with aptamer and modulator complexes for gene therapy” (priority 2002, published 2005) come the findings set out here.

The structures appear in SMILES notation.

One assay relates to MPTP-ablated monkeys. Description: Parkinsonian clinical rating scale (CRS) in MPTP-ablated monkeys. Format: in vivo, rhesus. As to conditions: diflucan continuously 3-12 mg/kg x day in animal previously treated with Lenti-GDNF.
The subject of the next assay is GDNF. Put plainly: GDNF expression in brain of MPTP-ablated monkeys (immunohistochemistry, ELISA). Format: in vivo, rhesus. (In general: An ELISA detects its analyte on a solid surface through an enzyme-linked reagent.)

Experimental for GDNF: After euthanasia, all monkeys are perfused with saline. The brain is removed, immersed in ice-cold saline for 10 min, and sliced on a monkey brain slicer. Slabs through the head of the caudate and putamen are punched bilaterally with a 1 mm brain punch. These punches are processed for HPLC for determination of catecholamine content. Brain punches are also homogenized in 150:1 buffer I [0.1M tris-buffered saline, pH 8.1, containing 1 mM EDTA, 1% aprotinin, 10 mg/ml leupeptin, 14 mg/ml pepstatin, 4 mM phenylmethylsulfonyl fluoride (PMSF)] for 30 sec in the ice slurry. An equal amount of buffer II (0.1 M tris-buffered saline, pH 8.1, containing 1 mM EDTA, 1% aprotinin, 10 g/ml leupeptin, 14 μg/ml pepstatin, 4 mM PMSF, and 0.5% NP-40) is then added. The tubes are shaken for 2 hours. The supernatant is collected for ELISA and protein measurements. The ELISA reaction was completed in 96-well plate (Dynatech, Chantilly, Va.) according to the ELISA manufacturer's instructions (GDNF Emax ImmunoAssay Systems Kit G3520, Promega, Madison, Wis.). The optical densities are recorded in ELISA plate reader (at 450 nm wave length; Dynatech). […] The concentrations of GDNF are calculated against six-point standard curve and then adjusted to picograms of GDNF per milligram of total protein. The total protein in each tissue lysate is measured using Bio-Rad protein assay kit (Bio-Rad, Richmond, Calif.). […]

`OC(Cn1cncn1)(Cn1cncn1)c1ccc(F)cc1F` [Diflucan, Fluconazole]: the “therapeutic effect in Parkinson's model monkeys” value with MPTP-ablated monkeys was “no therapeutic effect”. Besides, in the assay on GDNF (diflucan continuously 3-12 mg/kg x day in animal previously treated with Lenti-GDNF), the GDNF expression result was “switched off”. Moreover, the “levels of GDNF in the brains” value with GDNF (diflucan treated animals compared to animals where diflucan is omitted) is given as “no significant levels of GDNF”.
